Experiment [1] addresses T1, hP2X3 (Homo sapiens, UniProt P56373).
T1 construct: expressed in transfected cells
T1 sequence (P56373 1-397): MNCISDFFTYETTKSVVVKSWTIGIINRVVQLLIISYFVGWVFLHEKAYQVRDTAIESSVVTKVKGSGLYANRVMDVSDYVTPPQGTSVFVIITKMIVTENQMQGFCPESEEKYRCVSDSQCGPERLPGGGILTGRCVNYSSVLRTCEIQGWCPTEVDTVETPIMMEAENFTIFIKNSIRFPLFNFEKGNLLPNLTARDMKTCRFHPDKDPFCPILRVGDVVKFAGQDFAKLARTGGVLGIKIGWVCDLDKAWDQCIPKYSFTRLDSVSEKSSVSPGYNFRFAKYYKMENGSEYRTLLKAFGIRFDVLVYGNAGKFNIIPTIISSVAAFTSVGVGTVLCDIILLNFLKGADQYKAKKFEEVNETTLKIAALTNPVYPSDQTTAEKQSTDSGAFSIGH
In words: Calcium uptake assay (Ca influx), P2X antagonist assay, P2X3 homomer. The class given is cell-based. Conditions: inhibition of agonist-induced calcium influx. From the text:
(§1) Human P2X3 (Accession no. NM_002559), P2X2 (Accession no. NM_170682) and Rat P2X3 (Accession no. NM_031075) and P2X2 (Accession no. NM_053656) are cloned into a mammalian expression vector (e.g., pcDNAS/TO or pcDNA3 Invitrogen). The human P2X2/3 chimera clone is created as described by Neelands et al, and then cloned into an expression vector as above. Receptors are expressed in cells (e.g., HEK293 or 1321N1 (obtained from the ECACC)) via transient transfection using standard lipid mediated transfection, or by creation of stable transfectants for each receptor. For expression of the P2X2/3 heteromeric receptor, the P2X3 expression vector is stably transfected into a cell line already stably expressing P2X2. P2X2/3 heteromer function is isolated using pharmacological methods. Cell lines are maintained in DMEM+5% Glutamax, the appropriate level of selective antibiotic, and 10% heat inactivated FBS.
(§2) Functional activity of compounds at the P2X receptor is determined by measuring their ability to inhibit agonist-induced calcium influx. Compounds are tested for antagonist activity against the P2X2/3 chimera, the P2X3 homomer, or the P2X2/3 heteromer. At the start of each screening day, the agonist EC50 is determined. Compound % inhibition or IC50s are subsequently determined using a predetermined agonist concentration (EC50-90 depending on cell line) as a stimulus. The agonists used are αβMeATP, ATP, or other ATP analogs. Compounds may be tested at concentrations ranging from 1 pM to 10 μM.
(§3) To test for antagonist activity, cells expressing the appropriate receptor are seeded onto 96 or 384 well plates 18-24 hours prior to assay. On the day of the assay, cells are loaded with calcium-sensitive fluorescent dye (e.g., Fluo-4 no wash reagent-Invitrogen cat#F36206, or the BD™ PBX Calcium Assay Kit-BD cat #640175) in Hank's Buffered Salt Solution (HBSS) with up to 10 mM supplemental CaCl2. Plates are incubated at 37° C. and then equilibrated at room temperature. Antagonism of agonist-induced calcium influx is measured using a fluorescent imaging plate reader (e.g. FLIPR^TETRA, Molecular Devices, Sunnyvale, Calif.). The assay comprises two stages: a pre-treatment phase followed by a treatment phase. Compounds may be tested as follows: For the pre-treatment phase, 50 μL of 3× concentration of test compound in HBSS is added to cells containing 100 μL of dye loading media to achieve a final concentration of 1× test compound. For the treatment phase, at a set interval after pre-treatment (1-30 minutes), 50 μL of 1× test compound plus 4× agonist solution is added, resulting in a final concentration of 1× compound and 1× agonist. Fluorescence is measured at 0.1-3 second intervals—with an excitation wavelength of 494 nm and an emission wavelength of 515 nm. Responses are measured as (peak fluorescence after agonist addition) minus (baseline fluorescence prior to treatment). Percent inhibition is calculated as follows:
(§4) [formula] IC50 values are determined by analyzing dose response data in a 4 parameter logistic fit using GraphPad Prizm.
(§5) The following compounds have been or can be prepared according to the synthetic methods described herein. A calcium uptake assay was performed as described above and the activity of each compound is expressed as follows: […]

Experiment [2] deals with T2, hP2X2/3H (Homo sapiens, UniProt P56373+Q9UBL9).
T2 construct: expressed in transfected cells
T2 sequence (P56373 1-397): T1 sequence (P56373 1-397)
T2 sequence (Q9UBL9 1-471): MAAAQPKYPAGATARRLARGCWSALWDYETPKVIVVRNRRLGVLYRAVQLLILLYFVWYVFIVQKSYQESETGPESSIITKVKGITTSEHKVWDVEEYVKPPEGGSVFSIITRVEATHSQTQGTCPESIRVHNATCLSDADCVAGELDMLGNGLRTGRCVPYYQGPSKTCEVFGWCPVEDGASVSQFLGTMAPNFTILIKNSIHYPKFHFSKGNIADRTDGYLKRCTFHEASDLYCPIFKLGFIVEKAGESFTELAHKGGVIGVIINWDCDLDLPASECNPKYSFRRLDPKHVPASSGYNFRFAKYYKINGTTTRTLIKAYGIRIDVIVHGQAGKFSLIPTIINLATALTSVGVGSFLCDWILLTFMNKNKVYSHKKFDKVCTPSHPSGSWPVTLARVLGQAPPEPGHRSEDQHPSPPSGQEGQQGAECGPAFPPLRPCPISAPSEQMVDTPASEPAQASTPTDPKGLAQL
As to the kind of experiment: Calcium uptake assay (Ca influx), P2X antagonist assay, P2X2/3 heteromer. Format: cell-based. Conditions: inhibition of agonist-induced calcium influx.
Excerpt: as §1, §2, §3, §4, §5

The term IC50 denotes the concentration that gives 50% inhibition.

SMILES strings stand for the structures.

With `Cc1ccc(-c2cc(C(=O)NCc3ccc(C)nc3)cc(-c3ccccc3F)c2)cc1` [Compound 6, 2″-Fluoro-4-methyl-[1,1′;3′,1″]terphenyl-5′-carboxylic acid (6-methyl-pyridin-3-ylmethyl)-amide], the IC50 came out at 342 nM in experiment [1] and 418 nM in experiment [2].
The corresponding values for `Cc1ccc(-c2cc(C(=O)N[C@H](C)c3cnc(C)nc3)cc(-c3cnccc3C#N)c2)nc1` [Compound 55, 3-(4-Cyano-pyridin-3-yl)-5-(5-methyl-pyridin-2-yl)-N-[(R)-1-(2-methyl-pyrimidin-5-yl)-ethyl]-benzamide] are 12.7 nM and 27.5 nM.
Turning to `COc1ccccc1-c1cc(C(=O)NCc2ccc(C)nc2)cc(-c2ccc(C)cc2)c1` [Compound 4, 2″-Methoxy-4-methyl-[1,1′;3′,1″]terphenyl-5′-carboxylic acid (6-methyl-pyridin-3-ylmethyl)-amide], the IC50 stood at 306 nM in experiment [1] and 1060 nM in experiment [2].
With `Cc1ccc(-c2cc(C(=O)N[C@@H](C)CO)cc(-c3cnccc3C#N)c2)nc1` [Compound 84, 3-(4-Cyano-pyridin-3-yl)-N-((S)-2-hydroxy-1-methyl-ethyl)-5-(5-methyl-pyridin-2-yl)-benzamide], the half-inhibitory concentration (IC50) in experiment [1] amounted to 10.3 nM; in experiment [2], 850 nM.
As to `Cc1ccc(-c2cc(C(=O)NCc3ccc(C)nc3)cc(-c3ccncc3)c2)cc1` [Compound 22, 4′-Methyl-5-pyridin-4-yl-biphenyl-3-carboxylic acid (6-methyl-pyridin-3-ylmethyl)-amide], the IC50 was 191 nM in experiment [1] and 143 nM in experiment [2].
The corresponding values for `Cc1ccc(-c2cc(C(=O)NCc3ccc(C)nc3)cc(N3CCCC3=O)c2)cc1` [Compound 49, 4′-Methyl-5-(2-oxo-pyrrolidin-1-yl)-biphenyl-3-carboxylic acid (6-methyl-pyridin-3-ylmethyl)-amide] are 34.1 nM and 205 nM.
For the compound `Cc1ccc(-c2cc(C(=O)NCc3ccc(C)nc3)cc(N3CCN(C)CC3=O)c2)cc1` [Compound 68, 4′-Methyl-5-(4-methyl-2-oxo-piperazin-1-yl)-biphenyl-3-carboxylic acid (6-methyl-pyridin-3-ylmethyl)-amide], the IC50 is 371 nM in experiment [1] and 1390 nM in experiment [2].
The corresponding values for `Cc1ccc(-c2cc(C(=O)NCc3ccc(C)nc3)cc(-c3ccccc3CO)c2)nc1` [Compound 13, 2′-Hydroxymethyl-5-(5-methyl-pyridin-2-yl)-biphenyl-3-carboxylic acid (6-methyl-pyridin-3-ylmethyl)-amide] are 9 nM and 12.9 nM.
For `Cc1ccc(-c2cc(C(=O)NCc3ccc(C)nc3)cc(-c3ccc(CO)cc3)c2)cc1` [Compound 26, 4″-Hydroxymethyl-4-methyl-[1,1′;3′,1″]terphenyl-5′-carboxylic acid (6-methyl-pyridin-3-ylmethyl)-amide], the IC50 in experiment [1] was 309 nM; in experiment [2] it was 503 nM.
The corresponding values for `Cc1ccc(-c2cc(C(=O)N[C@H](C)c3cnc(C)nc3)cc(N3CCOCC3=O)c2)nc1` [Compound 57, 3-(5-Methyl-pyridin-2-yl)-N-[(R)-1-(2-methyl-pyrimidin-5-yl)-ethyl]-5-(3-oxo-morpholin-4-yl)-benzamide] are 89.2 nM and 527 nM.
The corresponding values for `Cc1ccc(-c2cc(C(=O)NCc3cnc(C)nc3)cc(N3CCCCC3=O)c2)cc1` [Compound 38] are 80.7 nM and 226 nM.
In the case of `Cc1ccc(-c2cc(C(=O)N[C@H](C)CN3CCOCC3)cc(-c3c(F)cccc3C(F)(F)F)c2)nc1` [Compound 83, 2′-Fluoro-5-(5-methyl-pyridin-2-yl)-6′-trifluoromethyl-biphenyl-3-carboxylic acid ((R)-1-methyl-2-morpholin-4-yl-ethyl)-amide], the IC50 in experiment [1] was 72.1 nM; in experiment [2] it was 26 nM.
The matching figures for `Cc1ccc(-c2cc(C(=O)NCc3ccc(C)nc3)cc(N3CCNCC3=O)c2)c(C#N)c1` [Compound 65, 2′-Cyano-4′-methyl-5-(2-oxo-piperazin-1-yl)-biphenyl-3-carboxylic acid (6-methyl-pyridin-3-ylmethyl)-amide]: 117 nM and 1060 nM.
The corresponding values for `Cc1ccc(-c2cc(C(=O)NCc3ccc(C)nc3)cc(-c3ccccc3C#N)c2)cc1` [Compound 27, 2″-Cyano-4-methyl-[1,1′;3′,1″]terphenyl-5′-carboxylic acid (6-methyl-pyridin-3-ylmethyl)-amide] are 195 nM and 142 nM.
The corresponding values for `Cc1ccc(-c2cc(C(=O)NCc3ccc(C)nc3)cc(-c3ccccc3CO)c2)cc1` [Compound 8, 2″-Hydroxymethyl-4-methyl-[1,1′;3′,1″]terphenyl-5′-carboxylic acid (6-methyl-pyridin-3-ylmethyl)-amide] are 182 nM and 116 nM.
For `Cc1ccc(-c2cc(C(=O)N[C@H](C)c3cnc(C)nc3)cc(-c3cccc(F)c3F)c2)nc1` [Compound 36, 2′,3′-Difluoro-5-(5-methyl-pyridin-2-yl)-biphenyl-3-carboxylic acid [(R)-1-(2-methyl-pyrimidin-5-yl)-ethyl]-amide], the IC50 in experiment [1] was 65.4 nM; in experiment [2], 32.8 nM.
The matching figures for `Cc1ccc(-c2cc(C(=O)N[C@H](C)CN3CCOCC3)cc(-c3cc(C(F)(F)F)ccc3C#N)c2)nc1` [Compound 80, (R)-2′-cyano-5-(5-methylpyridin-2-yl)-N-(1-morpholinopropan-2-yl)-5′-(trifluoromethyl)biphenyl-3-carboxamide]: 351 nM and 218 nM.
For `Cc1ccc(-c2cc(C(=O)N[C@H](C)c3ccc(C)nc3)cc(N3CCCC3=O)c2)cc1` [Compound 51, 4′-Methyl-5-(2-oxo-pyrrolidin-1-yl)-biphenyl-3-carboxylic acid [(R)-1-(6-methyl-pyridin-3-yl)-ethyl]-amide], the IC50 in experiment [1] is 23.8 nM; in experiment [2] it was 37 nM.
Consider `Cc1ccc(-c2cc(C(=O)NCc3ccc(C)nc3)cc(N3CCC[C@@H]3CO)c2)cc1` [Compound 62, 5-((R)-2-Hydroxymethyl-pyrrolidin-1-yl)-4′-methyl-biphenyl-3-carboxylic acid (6-methyl-pyridin-3-ylmethyl)-amide], for which the results for the IC50 in experiment [1] and in experiment [2] were 45.7 nM and 47.4 nM, respectively.
`Cc1ncc([C@@H](C)NC(=O)c2cc(-c3ccccn3)cc(-c3ccccc3CO)c2)cn1` [Compound 44, 2′-Hydroxymethyl-5-pyridin-2-yl-biphenyl-3-carboxylic acid [(R)-1-(2-methyl-pyrimidin-5-yl)-ethyl]-amide]: the results for the IC50 in experiment [1] and in experiment [2] were 91.6 nM and 293 nM, respectively.

For the origin of these results see US9133122B2, “Amide compounds, compositions and uses thereof” (EVOTEC AG, priority 2008, dated 2015).
